Measurements: patent US10124004B2, “Pyrido[3,4-d]pyrimidine derivative and pharmaceutically acceptable salt thereof” (Teijin Pharma Limited, priority 2015, dated 2018)
pIC50: −log10 of the molar value. Read-outs that look alike come from different tables or passages of the source.

Key:
[1] = biological target: T1, CDK4/cyclin D3 (Homo sapiens, UniProt P11802); assay: Human CDK4/cyclin D3 inhibitory activity (QS S Assist CDK4/Cyclin D3_FP Kit, IMAP fluorescence polarization); type: biochemical
T1 construct: purchased Carna Biosciences, Inc. QS S Assist CDK4/Cyclin D3_FP Kit
How it was run: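 Percent inhibition, relative to DMSO with and without enzyme, was curve-fitted to give IC50 from polarization (ex 485, em 535 nm). The 45-min room-temperature reaction used 12.5-25 ng/well enzyme, kit ATP/substrate/metal mix, and HEPES pH 7.4 buffer with Tween20 and DTT, followed by 30-min IMAP binding in the dark.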

[2] = biological target: T2, CDK2/cyclin A2 (Homo sapiens, UniProt P24941); assay: Human CDK2/cyclin A2 inhibitory activity (QS S Assist CDK2/Cyclin A2_FP Kit, IMAP fluorescence polarization); type: biochemical
T2 construct: purchased Carna Biosciences, Inc. QS S Assist CDK2/Cyclin A2_FP Kit
How it was run: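 Kinase activity read as fluorescence polarization (485/535 nm) after phosphorylated fluorescent substrate binds IMAP reagent (30 min, RT, dark). Enzyme (2.5 ng/well) reacted 60 min at RT with ATP/substrate/metal in HEPES pH 7.4 buffer with Tween 20 and DTT; no-enzyme wells define 0% activity; IC50 by curve fit.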

[3] = 50% inhibitory concentration against CDK4/cyclin D3, given as class symbol
[4] = 50% inhibitory concentration against CDK2/cyclin A2, given as class symbol
[5] = Human CDK4/cyclin D3 inhibitory activity, read-out: CDK4 Activity symbol
[6] = Human CDK2/cyclin A2 inhibitory activity, read-out: CDK2 Activity symbol

T1 sequence (P11802 whole entry): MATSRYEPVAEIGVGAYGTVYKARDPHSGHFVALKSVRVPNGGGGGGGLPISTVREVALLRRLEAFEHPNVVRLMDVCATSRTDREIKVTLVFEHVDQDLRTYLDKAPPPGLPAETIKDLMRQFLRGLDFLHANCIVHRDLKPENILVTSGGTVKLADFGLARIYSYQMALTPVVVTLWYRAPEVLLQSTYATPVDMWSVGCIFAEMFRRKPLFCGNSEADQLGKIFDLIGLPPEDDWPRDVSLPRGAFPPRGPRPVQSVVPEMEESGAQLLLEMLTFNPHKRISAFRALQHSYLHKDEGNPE
T1 sequence (P30281 whole entry partner): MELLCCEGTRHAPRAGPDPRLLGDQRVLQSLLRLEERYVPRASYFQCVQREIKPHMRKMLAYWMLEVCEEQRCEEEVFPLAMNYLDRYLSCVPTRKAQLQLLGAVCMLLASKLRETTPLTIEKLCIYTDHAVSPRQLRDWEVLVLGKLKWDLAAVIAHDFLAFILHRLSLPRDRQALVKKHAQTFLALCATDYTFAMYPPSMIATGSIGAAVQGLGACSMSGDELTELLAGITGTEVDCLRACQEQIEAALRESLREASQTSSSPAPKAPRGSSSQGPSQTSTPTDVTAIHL

SMILES | pIC50 [1, 3] | pIC50 [2, 4] | pIC50 [1, 5] | pIC50 [2, 6]
Cc1cc(Nc2ncc3cc([C@@H](C)O)nc(NC(C)C)c3n2)ncc1CN1CCN(CCO)CC1 [Compound 1055] | 7.00 to 8.00 | ≤ 7.00 |  | 
CO[C@H](C)c1cc2cnc(Nc3ccc(N4CCNC[C@H]4C)nn3)nc2c(NC(C)C)n1 [Compound 372] |  |  | > 8.00 | ≤ 7.00
Cc1nc(Nc2ncc3c(Cl)c(C(F)F)nc(NC(C)C)c3n2)ccc1N1CCNCC1=O [Compound 851] | 7.00 to 8.00 | ≤ 7.00 |  | 
CCCNc1nc([C@@H](C)O)cc2cnc(Nc3ccc4c(n3)CCNC4)nc12 [Compound 944] | > 8.00 | ≤ 7.00 |  | 
CCCNc1nc([C@@H](C)OC)cc2cnc(Nc3ccc4c(n3)CCN(CCN(C)C)C4)nc12 [Compound 1130] | 7.00 to 8.00 | ≤ 7.00 |  | 
CC(C)Nc1nc([C@@H](C)O)cc2cnc(Nc3ccc(C(=O)N4CC[C@H](N(C)C)C4)cn3)nc12 [Compound 1162] | > 8.00 | 7.00 to 8.00 |  | 
CC(C)Nc1nc([C@@H](C)O)cc2cnc(Nc3ccc(N4CCN(CC(N)=O)CC4=O)cn3)nc12 [Compound 900] | > 8.00 | ≤ 7.00 |  | 
CC(C)Nc1nc(C(F)F)cc2cnc(Nc3ccc(C(N)=O)cn3)nc12 [Compound 96] |  |  | 7.00 to 8.00 | 7.00 to 8.00
CCNc1nc([C@@H](C)O)cc2cnc(Nc3ccc(CN4CCN(CCCO)CC4)cn3)nc12 [Compound 1072] | > 8.00 | ≤ 7.00 |  | 
CCNc1nc([C@@H](C)O)cc2cnc(Nc3ccc(CN4CCC(O)CC4)cn3)nc12 [Compound 1060] | > 8.00 | ≤ 7.00 |  | 
CO[C@H](C)c1cc2cnc(Nc3ccc4c(n3)CCN(C(=O)CO)C4)nc2c(N[C@H]2CCCOC2)n1 [Compound 1113] | 7.00 to 8.00 | ≤ 7.00 |  | 
COCC(C)(C)Nc1nc([C@@H](C)O)cc2cnc(Nc3ccc(CN4CCN(CC(F)F)CC4)cn3)nc12 [Compound 299] |  |  | 7.00 to 8.00 | ≤ 7.00
CC(C)Nc1nc([C@H](C)F)cc2cnc(Nc3ccc(N4CCNCC4)nn3)nc12 [Compound 698] | > 8.00 | ≤ 7.00 |  | 
C[C@@H](O)c1cc2cnc(Nc3ccc(N4CCC(O)CC4)nn3)nc2c(NC2CCC(C)(C)OC2)n1 (some centres unmarked) [Compound 589] |  |  | > 8.00 | ≤ 7.00
C[C@@H](O)c1cc2cnc(Nc3ccc(O[C@H]4CCNC4)cn3)nc2c(N[C@H]2CCCOC2)n1 [Compound 803] | > 8.00 | ≤ 7.00 |  | 
CC(C)Nc1nc(C(F)F)cc2cnc(Nc3ccc(O[C@H]4CC[C@H](O)CC4)cn3)nc12 [Compound 120] |  |  | 7.00 to 8.00 | ≤ 7.00
CC(C)Nc1nc(C2CCOC2)cc2cnc(Nc3ccc4c(n3)CCN(CC(=O)O)C4)nc12 (centres unmarked) [Compound 1232] | > 8.00 | ≤ 7.00 |  | 
CO[C@H](C)c1cc2cnc(Nc3ccc(N4CCNCC4)nn3)nc2c(NCCCF)n1 [Compound 1226] | > 8.00 | ≤ 7.00 |  | 
CC(C)CNc1nc([C@@H](C)O)cc2cnc(Nc3ccc(N4CCNCC4)nn3)nc12 [Compound 827] | > 8.00 | ≤ 7.00 |  | 
CC(C)Nc1nc(C(F)F)cc2cnc(Nc3ccc(CCCN4CCOCC4=O)cn3)nc12 [Compound 168] |  |  | > 8.00 | 7.00 to 8.00

SMILES | pIC50 [1, 3] | pIC50 [2, 4] | pIC50 [1, 5] | pIC50 [2, 6]
CCNc1nc([C@@H](C)O)cc2cnc(Nc3ccc4c(n3)CCN(CCO)C4)nc12 [Compound 1124] | 7.00 to 8.00 | ≤ 7.00 |  | 
Cc1nc(Nc2ncc3cc(C4CCOC4)nc(NC(C)C)c3n2)ccc1N1CCNCC1=O (centres unmarked) [Compound 824] | > 8.00 | ≤ 7.00 |  | 
CCNc1nc([C@@H](C)O)cc2cnc(Nc3ccc4c(n3)CCN(C(=O)CO)C4)nc12 [Compound 1117] | 7.00 to 8.00 | ≤ 7.00 |  | 
CC1(c2cc3cnc(Nc4ccc5c(n4)CCNC5)nc3c(N[C@H]3CCCOC3)n2)COC1 [Compound 888] | > 8.00 | ≤ 7.00 |  | 
C[C@@H](O)c1cc2cnc(Nc3ccc(CN4CCNCC4)cn3)nc2c(N[C@H]2CC[C@H](O)CC2)n1 [Compound 344] |  |  | > 8.00 | ≤ 7.00
CC(C)Nc1nc([C@@H](C)O)cc2cnc(Nc3ccc(-c4cnn(C5CCNCC5)c4)cn3)nc12 [Compound 808] | > 8.00 | ≤ 7.00 |  | 
C[C@@H](O)c1cc2cnc(Nc3ccc(N4CCNCC4)nn3)nc2c(N[C@H]2CC[C@H](C(=O)O)CC2)n1 [Compound 338] |  |  | > 8.00 | ≤ 7.00
CC(C)Nc1nc(C(F)F)cc2cnc(Nc3ccc(C4CCC(O)CC4)cn3)nc12 (centres unmarked) [Compound 107] |  |  | 7.00 to 8.00 | ≤ 7.00
CO[C@H](C)c1cc2cnc(Nc3ccc(C4CCNCC4)cn3)nc2c(N[C@H]2CCCOC2)n1 [Compound 956] | > 8.00 | ≤ 7.00 |  | 
C[C@@H](O)c1cc2cnc(Nc3ccc(CC4CCNCC4)cn3)nc2c(NCC2CCOCC2)n1 [Compound 952] | > 8.00 | ≤ 7.00 |  | 
C[C@@H](O)c1cc2cnc(Nc3ccc4c(n3)CCN(CCN(C)C)C4)nc2c(N[C@H]2CCCOC2)n1 [Compound 1140] | > 8.00 | ≤ 7.00 |  | 
CC(C)Nc1nc([C@@H](C)O)cc2cnc(Nc3ccc(N4CCN=CC4=O)cn3)nc12 [Compound 731] | > 8.00 | ≤ 7.00 |  | 
CC(C)Nc1nc(C(F)F)cc2cnc(Nc3ccc(CCCO)cn3)nc12 [Compound 164] |  |  | > 8.00 | 7.00 to 8.00
CNC1CC2(C1)CN(c1ccc(Nc3ncc4cc([C@@H](C)OC)nc(NC(C)C)c4n3)nc1)C2 [Compound 512] |  |  | > 8.00 | ≤ 7.00
CC(C)CN1CCN(c2ccc(Nc3ncc4cc([C@@H](C)O)nc(NC(C)C)c4n3)nc2)C(=O)C1 [Compound 596] |  |  | > 8.00 | ≤ 7.00
CO[C@H](C)c1cc2cnc(Nc3ccc4c(n3)CCN(CCN(C)C)C4)nc2c(N[C@H]2CCCOC2)n1 [Compound 1132] | > 8.00 | ≤ 7.00 |  | 
CC(C)Nc1nc([C@@H](C)O)cc2cnc(Nc3ccc(N4C(=O)CN5CCC4CC5)cn3)nc12 [Compound 623] |  |  | > 8.00 | 7.00 to 8.00
C[C@@H](O)c1cc2cnc(Nc3ccc(CN4CCN(CCO)CC4)cn3)nc2c(NC2CC2)n1 [Compound 997] | > 8.00 | ≤ 7.00 |  | 
CO[C@H](C)c1cc2cnc(Nc3ccc(CN4CCc5nc(C)[nH]c5C4)cn3)nc2c(NC(C)C)n1 [Compound 277] |  |  | ≤ 7.00 | ≤ 7.00
CCNc1nc([C@@H](C)OC)cc2cnc(Nc3ccc(N4CCNCC4)nn3)nc12 [Compound 817] | > 8.00 | ≤ 7.00 |  | 

SMILES | pIC50 [1, 3] | pIC50 [2, 4] | pIC50 [1, 5] | pIC50 [2, 6]
CC(C)CNc1nc([C@@H](C)O)cc2cnc(Nc3ccc(CN4CCN(CCO)CC4)cn3)nc12 [Compound 846] | > 8.00 | ≤ 7.00 |  | 
CNCCOc1ccc(Nc2ncc3cc([C@@H](C)O)nc(N(C)[C@H]4CCCOC4)c3n2)nc1 [Compound 868] | > 8.00 | ≤ 7.00 |  | 
CC(=O)NCCCc1ccc(Nc2ncc3cc(C(F)F)nc(NC(C)C)c3n2)nc1 [Compound 152] |  |  | > 8.00 | 7.00 to 8.00
CCCNc1nc(C2CCCO2)cc2cnc(Nc3ccc(N4CCNCC4)cn3)nc12 (single isomer, unassigned) [Compound 1026] | 7.00 to 8.00 | ≤ 7.00 |  | 
CC(C)Nc1nc([C@@H](C)O)cc2cnc(Nc3cnc(CN4CCNCC4)cn3)nc12 [Compound 1049] | > 8.00 | ≤ 7.00 |  | 
CC(C)Nc1nc([C@@H](C)O)cc2cnc(Nc3cnc(CN4CCN(CCO)CC4)cn3)nc12 [Compound 1050] | > 8.00 | ≤ 7.00 |  | 
C[C@@H](O)c1cc2cnc(Nc3ccc(CN4CCCC(O)C4)cn3)nc2c(NCC2CC2)n1 (some centres unmarked) [Compound 1083] | > 8.00 | ≤ 7.00 |  | 
CCNc1nc([C@@H](C)O)cc2cnc(Nc3ccc(CN4CCC(CO)CC4)cn3)nc12 [Compound 1147] | > 8.00 | ≤ 7.00 |  | 
CCCNc1nc(C2CCCO2)cc2cnc(Nc3ccc(N4CCNCC4)cn3)nc12 (single isomer, unassigned) [Compound 1025] | ≤ 7.00 | ≤ 7.00 |  | 
CC(C)Nc1nc(C2CCCO2)cc2cnc(Nc3ccc(CN4CCNCC4)cn3)nc12 (single isomer, unassigned) [Compound 729] | > 8.00 | ≤ 7.00 |  | 
CCCNc1nc([C@@H](C)O)cc2cnc(Nc3ccc(CN4CCC(CO)CC4)cn3)nc12 [Compound 1040] | > 8.00 | ≤ 7.00 |  | 
CCCNc1nc([C@@H](C)O)cc2cnc(Nc3ccc(CN4CCC[C@@H](O)C4)cn3)nc12 [Compound 1195] | > 8.00 | ≤ 7.00 |  | 
C[C@@H](O)c1cc2cnc(Nc3ccc(CN4CCC(O)CC4)cn3)nc2c(N[C@H]2CCCOC2)n1 [Compound 1126] | > 8.00 | ≤ 7.00 |  | 
CC(C)Nc1nc(C(F)F)cc2cnc(Nc3ccc(CN4CCCC(CO)C4)cn3)nc12 (centres unmarked) [Compound 127] |  |  | > 8.00 | 7.00 to 8.00
CC(C)Nc1nc([C@@H](C)O)cc2cnc(Nc3ccc4c(n3)CCN(S(=O)(=O)N(C)C)C4)nc12 [Compound 935] | 7.00 to 8.00 | ≤ 7.00 |  | 
Cc1c([C@H](C)O)nc(NC(C)C)c2nc(Nc3ccc(N4CCNCC4)cn3)ncc12 [Compound 65] |  |  | 7.00 to 8.00 | ≤ 7.00
CC(C)Nc1nc([C@@H](C)O)cc2cnc(Nc3ccc(CN4CCN(C)CC4)cn3)nc12 [Compound 548] |  |  | > 8.00 | ≤ 7.00
C[C@@H](O)c1cc2cnc(Nc3ccc4c(n3)CCN(CCO)C4)nc2c(N[C@H]2CCCOC2)n1 [Compound 1125] | > 8.00 | ≤ 7.00 |  | 
